Results on six compounds are retold here after patent EP1056700B1, “MEDICINAL USES OF PHENYLALKANOLS AND DERIVATES” (ZingoTX Pty Ltd, priority 1997, dated 1999).

Series [1] concerns Platelet rich plasma. The series is described as follows: Platelet aggregation: [^3H]-serotonin release from platelet rich plasma, arachidonic acid initiated. It counts as cell-based. Particulars: Homo sapiens, activation by EC50 concentration of arachidonic acid. The protocol:
Blood was collected from healthy volunteers who had taken no medication in the previous two weeks. The anticoagulant used was 3.8 % trisodium citrate. Platelet rich plasma was prepared and incubated with [^3H]-serotonin. This was followed by addition of gingerol analogues. Platelet activation was initiated using the EC50 concentration for arachidonic acid. The percentage of [^3H]-serotonin release was measured using a liquid scintillation counter. Then, dose-response curves were established and IC50 values were obtained.

In series [2] the target is T1, Lipoxygenase (LP) (Rattus norvegicus, UniProt P12527).
T1 construct: cell-free enzyme (Wong et al, 1991) prepared from rat basophilic leukemia (RBL) 2H3 cell lines; endogenous in cells; host or cells: RBL 2H3 (rat basophilic leukemia), 15,000 g supernatant of cells disrupted by nitrogen cavitation
T1 sequence (P12527 1-673): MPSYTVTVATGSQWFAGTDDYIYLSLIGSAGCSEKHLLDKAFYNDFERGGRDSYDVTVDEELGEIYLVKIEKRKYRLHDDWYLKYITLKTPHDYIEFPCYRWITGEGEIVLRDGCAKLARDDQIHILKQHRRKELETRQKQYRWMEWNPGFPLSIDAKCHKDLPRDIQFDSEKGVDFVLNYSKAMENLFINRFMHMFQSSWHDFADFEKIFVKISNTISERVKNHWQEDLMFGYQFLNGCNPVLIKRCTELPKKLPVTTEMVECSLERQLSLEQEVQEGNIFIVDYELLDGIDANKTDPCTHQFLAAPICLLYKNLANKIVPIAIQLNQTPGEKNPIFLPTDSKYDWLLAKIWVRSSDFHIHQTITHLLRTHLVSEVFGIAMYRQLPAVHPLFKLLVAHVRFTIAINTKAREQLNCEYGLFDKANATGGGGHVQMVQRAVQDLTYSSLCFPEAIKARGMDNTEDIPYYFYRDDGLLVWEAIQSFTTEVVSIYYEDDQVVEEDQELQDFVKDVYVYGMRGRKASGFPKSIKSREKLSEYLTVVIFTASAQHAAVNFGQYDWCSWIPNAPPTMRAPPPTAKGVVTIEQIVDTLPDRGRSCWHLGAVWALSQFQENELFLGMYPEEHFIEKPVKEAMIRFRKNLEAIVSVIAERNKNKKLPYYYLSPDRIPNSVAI
The series is described as follows: Lipoxygenase assay with cell-free enzyme from RBL 2H3 cells (EIA). The series is classed as biochemical. Particulars: final concentration of 10 µM. The method, then: Lipoxygenase (LP) assay was performed with cell-free enzyme (Wong et al, 1991) prepared from rat basophilic leukemia (RBL) 2H3 cell lines. Cells were cultured in EMEM containing 10% fetal calf serum and antibiotic until cells reached confluence. Harvested cells were resuspended in Hepes (10 mM) buffer, pH 7.4, containing 1 mM EDTA at 1 x 10^7 cells/ml, and disrupted by nitrogen cavitation using a Parr bomb at 750 psi for 15 min. The broken cells were centrifuged at 15,000 g for 30 min. Aliquots (0.1 ml) of the supernatant were preincubated with or without drugs in Hepes buffer (10 mM Hepes, pH 7, 1 mM EDTA and 150 mM NaCl) for 5 min, and the reaction was initiated with the addition of 50 µl of CaCl2 (16 mM), 50 µl of ATP (2 mM), 5 µl of PAF (2.5 mg/ml) and 5 µl of AA (2.5 mM). The reaction mixture ([…]) was incubated at room temperature for a further 8 min, then diluted with EIA buffer at 1/200 and 1/2000 dilutions and stored on ice for EIA following the protocol provided with the kit.
Validation of LP enzyme activity was carried out by a UV spectrophotometric method in which the enzyme activity was characterised against various concentrations of Ca^2+, ATP, PAF and AA with the measurement of the formation of diene conjugated products of LP at 235 nm.
All compounds were dissolved in DMSO and assayed at a final concentration of 10 µM. NDGA was used as reference compound. The concentration of DMSO in the assay was maintained at 1.5%.

The test system of series [3] is Cyclo-oxygenase (COX). The series can be described thus: Cyclo-oxygenase assay in RBL 2H3 cells (PGD2 EIA). Particulars: final concentration of 10 µM. The series is classed as cell-based, rat. The method, then:
Cyclo-oxygenase (COX) assay was performed with cells in culture prepared from rat basophilic leukemia (RBL) 2H3 cell lines. Cells were cultured in EMEM containing 10% fetal calf serum and antibiotic until cells reached confluence. Harvested cells were subsequently seeded on 24-well plates at 1 x 10^6 cells/ml then incubated at 37°C for 3 hours. Cells were washed twice with incubation buffer (1.5 ml) containing 5 mM Hepes, 140 mM NaCl, 5 mM KCl, 0.6 mM MgCl2, 1 mM CaCl2 and […]. Cells were then covered with 0.49 ml of buffer, followed by addition of samples/solvents (0.005 ml) and incubated at 37 °C for 5 min on an orbital shaker. Arachidonic acid (0.005 ml, containing 50% EtOH) was subsequently added, and the plate was incubated at similar conditions for a further 10 min. The supernatant (0.1 ml) was aliquoted for methoxime derivatisation of PGD2, which was carried out by heating the supernatant with methoxime solution (1:1) at 60 °C for 30 min according to the instructions provided with the kit. The resultant solution was diluted with EIA buffer and stored on ice for EIA, following the protocol provided with the kit.
Validation of COX enzyme activity was carried out using EIA in which the enzyme activity was characterised against various concentrations of AA and a time course of enzyme activity.
[…] Indomethacin was used as reference compound. The concentration of DMSO in the assay was maintained at 1.5%.

The test system of series [4] is DRG neuronal cells. The series can be described thus: Peak [Ca^2+]i transients in cultured dorsal root ganglion neurons (Fura-2). It counts as cell-based, rat. Particulars: 10 µM applied for 1 min, 2 mM Ca^2+. The protocol: DRG from neonatal (3-5 days old) rat or adult Sprague-Dawley rats were incubated in Hanks CMF saline with 0.05% collagenase and 0.25% trypsin for 25 min at 37° C. Individual cells were obtained by trituration with fire polished Pasteur pipettes of diminishing diameters. Neurones were isolated from the cell suspension in 30% Percoll and then plated on collagen coated coverslips or in 24-well plates, then cultured in neurobasal medium with B27 supplement, 50 ng/ml 2.5 S nerve growth factor, 2 mM 1-glutamine and 100 U/ml penicillin/streptomycin. Cultures were maintained at 37° C with 5% CO2. 30% Percoll increases the percentage of capsaicin-sensitive DRG neurones up to 70%. For peak [Ca^2+]i transients measurements, cells on coverslips were incubated with 5 µM Fura-2 AM for 30 min at 37° C. The coverslips were then mounted on a chamber attached to a fast sample application perfusion system which allows changing solutions in the second range. Recordings were made on the stage of a Nikon Diaphot inverted microscope fitted with a Nikon 40 x Fluo (NA 0.85) DL Ph3 or 40 x Fluo (NA 1.3) oil objective. [Ca^2+]i was calculated from dual excitation wavelength (340/380 nm) fluorescence measurements following an intracellular calibration procedure by the Grynkiewicz equation, using MCID M2/M4 v.3.0 (Imaging Res. Inc.) software. Cells were continuously perfused with a solution consisting of 140 mM NaCl, 2 mM CaCl2, 5 mM KCl, 20 mM HEPES, 10 mM glucose, pH 7.4. To study KCl evoked depolarisation, 50 mM NaCl was replaced by equimolar KCl. Cytoplasmic localisation of Fura-2 was tested with the Mn^2+ quenching technique (Dedov and Roufogalis, 1998). All experiments were performed at room temperature (20-23°C).
Typical changes in [Ca^2+]i upon depolarisation were evoked by 50 mM KCl and by application of 1 µM capsaicin; both were applied for 30 sec. Capsaicin-evoked peak [Ca^2+]i transients are characterised by a fast rise and long-steady state [Ca^2+]i clearance from the cytoplasm. In capsaicin-sensitive cells the half-time of cytoplasmic Ca^2+ clearance was proportional to the amplitudes of peak [Ca^2+]i transients.
To examine the effect of gingerol derivatives, one or several compounds in succession at a concentration of 10 µM were applied for 1 min to the DRG neuronal cells followed by washing out for 4 min with physiological solution. To the capsaicin-sensitive cells, 10 µM capsaicin and 50 mM KCl were applied, respectively, to confirm the viability of the cells. In addition, morphological appearances of the cells were also examined at the end of experiment. […]

For series [5], the system named is guinea pig atria. The series is described as follows: Organ bath assay on isolated guinea pig atria (rate and force of contraction). The settings on record: result in words, guinea pig atria. The protocol: Male guinea pigs, 3-4 weeks old, were killed by rapid cervical dislocation without induced anaesthesia. Then, the guinea pigs were dissected to isolate the atria which were immediately mounted vertically in an organ bath containing Krebs-Henseleit solution oxygenated with carbogen.
One gram tension was applied to the atria and the base line continuously adjusted until it was stable for 20 mins. The rate and force of contraction were recorded using Mac Lab equipment.
Test substances in DMSO were assayed to a maximum concentration of 50 µM at a final concentration of 2.5 % of DMSO.

Series [6] concerns rat mesenteric artery. The series can be described thus: Vasodilation on rat mesenteric small arteries. An excerpt:
Small arteries (200-300 µm in diameter) isolated from rat mesentery were precontracted with endothelin prior to addition of the test substances and tested for relaxation.

For series [7], the system named is brine shrimp (Artemia salina Leach). The settings on record: values determined by Meyer et al. (1982); cited from earlier work.
The nature of series [8]: Brine shrimp toxicity bioassay. It counts as in vivo. Particulars: Artemia salina (brine shrimp), in vivo; 24 hours, 2% DMSO. An excerpt: The brine shrimp assay procedure determines LC50 values of active compounds. Activities of a broad range of known active compounds are manifested as toxicity to brine shrimp (Artemia salina Leach). There are many applications of the assay including analysis of toxic substances, anaesthetics, morphine-like substances and cocarcinogenicity of phorbol esters.
The method for testing solvent toxicity used was basically that reported by J L McLaughlin in Methods of Plant Biochemistry (1991), vol. 6 (K Hostettman, ed.), Academic Press, London, 1-32. DMSO solutions of the substances to be tested were added directly to the vials containing the brine shrimp. As the concentration of DMSO that we wished to use was higher than the recommended 1% v/v testing of the toxicity of the DMSO was therefore necessary. The concentrations of DMSO tested on the shrimp, along with the results from the assay which was done in duplicate are listed below.
Brine shrimp toxicity was assayed, except for some minor modifications, according to the method of McLaughlin et al as reported in Brine Shrimp: A convenient bioassay for active plant constituents, B N Meyer, N R Ferrigni, J E Putnam, L B Jacobsen, D E Nichols and J L McLaughlin in Planta Medica (1982), 45, 31-34 and Crown gall tumours on potato discs and brine shrimp lethality: Two simple bioassays for higher plant screening and fractionation. J L McLaughlin. Methods of Plant Biochemistry (1991), vol. 6 (K Hostettman, ed.), Academic Press, London, 1-32. Ten shrimp were transferred to each of the vials and the volume adjusted to 4.9 mL. Each dose was performed in triplicate, including the control. In quick succession, the appropriate volume of additional DMSO for each dose, required to achieve a final concentration of 2%, was added before the appropriate volume of test solution. The vials were gently mixed and the time noted. After 24 hours, the number of survivors were counted and % mortality was determined. The test compounds were assayed at concentrations of 100 µM, 25 µM, 5 µM, 1 µM and 0.2 µM (and where appropriate concentrations of 0.04 µM and 0.008 µM).
The brine shrimp were able to survive without food in the vials over the 24 hour period and were therefore not fed.
The dose-response curves were constructed using the Sigmaplot computer program and the LC50 value was calculated from the intersection point of the curve and the 50 % mortality line. The LC50 values were expressed in both µM and µg/mL.

Values joined by “and” are separate entries in the source; they are usually repeats but may differ in a detail not shown here. Equal values may be shown once.

The IC50 is the concentration needed to halve the response being measured. Read a low IC50 as greater potency in that assay. Usually EC50 stands for the concentration needed to bring the measured effect to its halfway point. A higher EC50 goes with a need for much substance. The term LC50 denotes the concentration lethal to half of the exposed cells or organisms.

In series [1], `CCCCCCCCCC(=O)C(O)c1ccc(O)c(OC)c1` (stereo not drawn) [1-hydroxy-1-(4-hydroxy-3-methoxyphenyl)undecan-2-one] gave an IC50 of 69.4 ± 2.6 µM. In series [2], the activity at 10 µM is 83%. Besides, in series [3], the “Cyclooxygenase activity % activity” value is 16%.
On to `CCCCCCCCCCC(C)(O)CCc1ccc(O)c(OC)c1` (stereo not drawn) [3-methyl-1-(4-hydroxy-3-methoxyphenyl)tridecan-3-ol], for which, in series [1], 75.3 ± 3.1 µM corresponded to half-maximal inhibition (IC50). This compound returned an activity at 10 µM in series [2] of 5%.
In series [1], `CCCCCCCCC(C)(O)CCc1ccc(O)c(OC)c1` (stereo not drawn) [3-methyl-1-(4-hydroxy-3-methoxyphenyl)undecan-3-ol] had an IC50 of 45.3 ± 1.6 µM. In series [4], the “Number of capsaicin-sensitive cells responding” value is given as 0 out of 4 and the “Peak [Ca^2+]i (Average ±SD)” value is reported as 0 nM. For the same compound, the activity at 10 µM in series [2] was 3%. Moreover, the “Cyclooxygenase activity % activity” value in series [3] worked out at 15%.
With `CC(=O)Oc1ccccc1C(=O)O` [Aspirin, reference compound], in series [1], the 50% inhibitory concentration (IC50) is 23.4 ± 1.7 µM.
For `CCCCCCCCCC(=O)CCc1ccc(O)c(OC)c1` [[8]-paradol, 1-(4-hydroxy-3-methoxyphenyl)dodecan-3-one, reference compound], in series [5], the “FORCE OF CONTRACT^n” value was “inactive” and the “HEART RATE” value is “inactive”. For the same compound, in series [4], the “Number of capsaicin-sensitive cells responding” value stood at 1 and the “Peak [Ca^2+]i (Average ±SD)” value is 200 nM. Further, the activity at 10 µM in series [2] was 81%. The “Cyclooxygenase activity % activity” value in series [3] was 11%. This compound also returned a half-maximal effective concentration (EC50) in series [6] (Rattus norvegicus, relaxation of small arteries (200-300 µm) precontracted with endothelin) of 0.05 µM. In series [6] (result in words), the “relaxation of rat mesenteric artery” value is given as “showed potency”.
Take `COc1cc([C@@H]2c3cc4c(cc3[C@H](O)[C@H]3COC(=O)[C@H]23)OCO4)cc(OC)c1OC` [podophyllotoxin, reference compound]: in series [7], the LC50 is 5.8 µM. The 50% lethal concentration (LC50) at 24 h in series [8] is 3.8 µM and 1.6 µg/mL.
